The target of assay [1] is PARG (389-976) (Homo sapiens (Human), UniProt Q86W56). The experiment in a line: PARG enzyme inhibition assay (TR-FRET). It counts as biochemical. The protocol:
PARG in vitro assays were conducted in standard 384-well plates in a total volume of 15 μL. 5 μL of PARG (389-976) (manufactured by Chempartner Chemical Co., Ltd.) in buffer (50 mM Tris-HCL 7.5, 30 mM KCl, 1 mM EDTA, 3 mM DTT, tween-20 0.01%, BSA 0.025%) was added at a final concentration of 1.5 pM to the 384-well plates containing the compounds to be tested, which was incubated for 30 min at room temperature. To the above mixture was added 5 μL Bio PARylated His-TEV-PARP1(2-1014) substrate (manufactured by Chempartner Chemical Co., Ltd.) at a final concentration of 12 nM, after addition, the resulting mixture was incubated for 30 minutes at room temperature. Then to the mixture was added detection reagent (5 μL) which was buffered with 50 mM Tris-HCL 7.5, 30 mM KCl, 1 mM EDTA, 3 mM DTT, tween-20 0.01%, BSA 0.025%, and consisted of 3 μM of compound PDD00017273 and 9 nM Mab anti-6HIS XL665 (Cisbio: 61HISXLA) and 0.9 nM streptavidin affinity terbium cryptate (Cisbio:610SATLA), all at 3× working concentrations (final concentrations of 1 μM, 3 nM and 0.3 nM, respectively). After 120 min incubation in the dark at room temperature, TR-FRET signals were measured at Ex 340 and Em 665 and Em 615. The ratio for each well was calculated as Em 665/Em 615 and the compound inhibition rate was calculated based on the obtained data.

Assay [2] has as its system HCC1395. The experiment in a line: CTG assay for proliferation inhibition of cell lines. Type of assay: cell-based. The conditions noted are these: HCC1395, 7 days, CellTiter Glo. How it is done:
(§1) The assay was conducted on either 384-well plates or 96-well plates. The procedures are as follows:
(§2) The cell suspensions were added to 384- or 96-well plates (384-well plate: 50 μL; 96-well plate: 100 μL) except for peripheral wells. The plates were incubated in a carbon dioxide incubator overnight, HCC1395, HCC1428 and NCI-H460 were placed in a carbon dioxide incubator of 5%, […] overnight. Prepared compounds (10 concentration gradients by serial 3-fold dilution) were added to the wells using the HPD300 micro-dosing instrument. The cell plates were incubated in a carbon dioxide incubator for 7 days. HCC1395, HCC1428 and NCI-H460 were incubated in a 5%, 37° CO2 incubator. On the day of plate measurement, 384- or 96-well plates were first equilibrated at room temperature for 10-30 minutes, then to the 384- or 96-well plate was added CellTiter Glo reagent (384-well plate: 25 μL; 96-well plate: 100 μL), shaken for 10 minutes away from light, and incubated for 10 minutes. The incubated plates were placed into Victor NIVO reader plates, and the pharmacodynamic inhibition curves were plotted and IC50 values were calculated using XLFit.

Assay [3] concerns HCC1428. The assay is described as above. Type of assay: cell-based. The note with it: HCC1428, 7 days, CellTiter Glo. How it is done: as §1, §2
In assay [4] the test system is NCI-H460. The description is as above. Type of assay: cell-based. The note with it: NCI-H460, 7 days, CellTiter Glo. The protocol:
as §1, §2

Setting [5] is: class symbol, Bio PARylated His-TEV-PARP1 substrate, TR-FRET.
The mark [6] stands for this setting: numeric value in parentheses under the class symbol.

Chain of PARG (389-976) (Q86W56 389-976): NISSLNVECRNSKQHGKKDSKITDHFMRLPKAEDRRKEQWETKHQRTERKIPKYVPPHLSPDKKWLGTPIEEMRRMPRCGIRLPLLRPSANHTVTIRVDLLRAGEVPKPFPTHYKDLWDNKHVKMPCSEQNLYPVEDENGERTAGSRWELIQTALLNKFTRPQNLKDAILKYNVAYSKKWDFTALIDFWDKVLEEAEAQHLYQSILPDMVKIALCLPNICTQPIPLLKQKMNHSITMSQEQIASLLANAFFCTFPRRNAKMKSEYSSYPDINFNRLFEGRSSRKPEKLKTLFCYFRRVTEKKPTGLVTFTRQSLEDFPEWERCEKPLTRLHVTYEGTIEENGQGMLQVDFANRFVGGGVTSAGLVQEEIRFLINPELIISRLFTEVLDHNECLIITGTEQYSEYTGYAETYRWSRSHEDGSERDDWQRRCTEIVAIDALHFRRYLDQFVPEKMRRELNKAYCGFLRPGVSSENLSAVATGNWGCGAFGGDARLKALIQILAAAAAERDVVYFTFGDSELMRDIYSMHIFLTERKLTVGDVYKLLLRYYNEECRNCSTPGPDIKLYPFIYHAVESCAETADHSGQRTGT

As for `CN=S(=O)(C(C)C)N1CC=C(c2cc(S(=O)(=O)NC3(C#N)CC3)cc3c(-c4nnc(C(F)F)s4)nn(C)c23)CC1` (stereo not shown) [Compound 40], the 50% inhibitory concentration (IC50) is below 1 nM in assay [1] (setting [5]), 0.3 µM in assay [2], 0.454 µM in assay [3] and 0.261 µM in assay [4].

For the compound `Cn1nc(-c2nnc(C(F)F)s2)c2cc(S(=O)(=O)NC3(C#N)CC3)cc(C3=CCN(S(=O)(=O)C4CCOCC4)CC3)c21` [Compound 5], the IC50 is below 1 nM in assay [1] (setting [5]); 0.33 nM in assay [1] (setting [6]); 0.222 µM in assay [2]; 0.132 µM in assay [3]; 0.183 µM in assay [4].

As to `CC(C)S(=O)(=O)N1CC=C(c2cc(S(=O)(=O)NC3(C#N)CC3)cc3c(-c4ccc(C(F)F)nn4)nn(C)c23)CC1` [Compound 78], the IC50 was 1 to 10 nM in assay [1] (setting [5]), 0.5 µM in assay [2], 0.532 µM in assay [3] and 0.426 µM in assay [4].

Turning to `CC(C)S(=O)(=O)N1CCN(c2cc(S(=O)(=O)NC3(C#N)CC3)cc3c(-c4nnc(C(F)(F)F)s4)nn(C)c23)CC1` [Compound 35], the IC50 in assay [1] (setting [5]) is below 1 nM; in assay [2], 0.284 µM; in assay [3], 0.698 µM; in assay [4], 0.162 µM.

On to `CC(C)S(=O)(=O)c1ccc(-c2cc(S(=O)(=O)NC3(C#N)CC3)cc3c(-c4nnc(C(F)F)s4)nn(C)c23)cc1` [Compound 9], for which the IC50 in assay [1] (setting [5]) was 1 to 10 nM; in assay [2] it was 0.197 µM; in assay [3], 1.17 µM; in assay [4], 0.147 µM.

For `Cn1nc(-c2nnc(C(F)F)s2)c2cc(S(=O)(=O)NC3(C#N)CC3)cc(C3=CCN(S(=O)(=O)C4CNC4)CC3)c21` [Compound 20], the half-maximal inhibitory concentration (IC50) is below 1 nM in assay [1] (setting [5]); 0.06 nM in assay [1] (setting [6]); 3.95 µM in assay [2]; 3.02 µM in assay [3]; 2.81 µM in assay [4].

Take `Cn1nc(-c2nnc(C(F)F)s2)c2cc(S(=O)(=O)NC3(C#N)CC3)cc(C3=CCN(S(=O)(=O)C4(C)CC4)CC3)c21` [Compound 14]: the half-inhibitory concentration (IC50) in assay [1] (setting [5]) was below 1 nM; in assay [2] (Homo sapiens, 168 h) it was 0.126 µM; in assay [3] (Homo sapiens, 168 h), 0.399 µM; in assay [4] (Homo sapiens, 168 h), 0.122 µM.

With `CC(C)S(=O)(=O)N1CC=C(c2cc(S(=O)(=O)NC3(CF)CC3)cc3c(-c4nnc(C(F)F)s4)nn(C)c23)CC1` [Compound 18], the half-inhibitory concentration (IC50) in assay [1] (setting [5]) was below 1 nM; in assay [1] (setting [6]), 0.12 nM; in assay [2] it was 0.0423 µM; in assay [3], 0.215 µM; in assay [4], 0.0408 µM.

Take `CC(C)S(=O)(=O)C1CC=C(c2cc(S(=O)(=O)NC3(C#N)CC3)cc3c(-c4nnc(C(F)F)s4)nn(C)c23)CC1` (stereo not shown) [Compound 31]: the half-inhibitory concentration (IC50) was 1 to 10 nM in assay [1] (setting [5]); 1.14 nM in assay [1] (setting [6]); 0.641 µM in assay [2]; 0.507 µM in assay [3]; 0.457 µM in assay [4].

As to `CC(C)S(=O)(=O)N1CCC(c2cc(S(=O)(=O)NC3(C#N)CC3)cc3c(-c4nnc(C(F)F)s4)nn(C)c23)=C(CO)C1` [Compound 36], the IC50 is below 1 nM in assay [1] (setting [5]), 0.127 µM in assay [2], 0.0978 µM in assay [3] and 0.0729 µM in assay [4].

For `CC(C)C(=O)N1CCN(c2cc(S(=O)(=O)NC3(C#N)CC3)cc3c2cnn3-c2nnc(C(F)F)s2)CC1` [1′, reference compound], the IC50 in assay [1] (setting [5]) is 1 to 10 nM; in assay [1] (setting [6]), 1.9 nM; in assay [2] (Homo sapiens, 168 h), 1.29 µM; in assay [3] (Homo sapiens, 168 h), 1.38 µM; in assay [4] (Homo sapiens, 168 h), 0.796 µM.
